Measurements reported in patent US20230381146A1, “SUBSTITUTED HETEROARYL COMPOUNDS AND USE THEREOF” (HELIOS HUAMING BIOPHARMA CO., LTD., priority 2020, published 2023).

Molecular target: PAD4 (Homo sapiens, UniProt Q9UM07)
Assay: PAD4 Inhibition Assay (citrulline formation from BAEE substrate)
Type: biochemical
Settings: PAD4 75 nM, 60 minute preincubation at 37° C., 90 minutes
Description: PAD4 was diluted to 75 nM in Assay Buffer (50 mM Tris-HCl, 2 mM CaCl2), 2 mM DTT, 1 mM PMSF in H2O) and added to wells with various concentrations of compound or DMSO vehicle in Eppendorf tubes (final volume was 100 μL). Following a 60 minute preincubation at 37° C., the reaction was initiated by the addition of 10 μL substrate (22 mM BAEE in H2O) at 37° C. The reaction was stopped after 90 minutes by the addition of 25 μL HClO4 (5 M), 125 μL Reagent A (10 g/L diacetyl monoxime and 15 g/L NaCl in H2O) and 250 μL Reagent B (10 mg/mL antipyrine and 1.0 mg/mL FeCl3 diluted in detection buffer containing 25% H2SO4, 25% H3PO4 and 50% H2O) in sequence. This assay was quenched in an ice-bath for 5 minutes after boiling for 30 minutes. The citrulline formation was measured in fluorescence (κ=465 nm) on microplate reader and the IC50 was calculated by GraphPad Prism.

Sequence of PAD4 (Q9UM07 whole entry): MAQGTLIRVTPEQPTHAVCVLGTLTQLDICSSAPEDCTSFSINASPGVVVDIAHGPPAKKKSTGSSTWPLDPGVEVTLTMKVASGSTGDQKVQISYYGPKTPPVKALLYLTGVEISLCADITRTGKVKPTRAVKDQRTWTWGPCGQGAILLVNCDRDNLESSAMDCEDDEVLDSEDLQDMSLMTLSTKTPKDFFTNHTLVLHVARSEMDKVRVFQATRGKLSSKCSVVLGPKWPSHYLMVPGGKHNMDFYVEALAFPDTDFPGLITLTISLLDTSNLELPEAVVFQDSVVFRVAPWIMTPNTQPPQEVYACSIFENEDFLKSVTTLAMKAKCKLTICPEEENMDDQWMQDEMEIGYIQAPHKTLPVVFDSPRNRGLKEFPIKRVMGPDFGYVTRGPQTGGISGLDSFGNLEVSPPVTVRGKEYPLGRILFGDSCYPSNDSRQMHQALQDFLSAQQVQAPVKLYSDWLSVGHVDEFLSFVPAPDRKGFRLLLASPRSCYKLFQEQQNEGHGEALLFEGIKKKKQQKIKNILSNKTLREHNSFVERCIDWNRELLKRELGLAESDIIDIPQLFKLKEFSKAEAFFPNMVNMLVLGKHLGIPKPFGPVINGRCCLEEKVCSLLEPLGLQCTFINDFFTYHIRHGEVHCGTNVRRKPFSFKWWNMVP

With `Cc1cccc(-c2cnc([C@H](CCCNC(=N)CF)NC(=O)c3c(F)cccc3F)o2)c1` [EX-32, (S)-2,6-Difluoro-N-(4-(2-fluoroacetimidamido)-1-(5-(m-tolyl)oxazol-2-yl)butyl)benzamide] the IC50 was 0.2 to 0.5 µM.
`COc1cccc(OC)c1C(=O)N[C@@H](CCCNC(=N)CF)c1ncc(-c2ccccc2Cl)o1` [EX-21, (S)-N-(1-(5-(2-Chlorophenyl)oxazol-2-yl)-4-(2-fluoroacetimidamido)butyl)-2,6-dimethoxybenzamide] showed an IC50 of less than 0.2 µM.
In the case of `COc1cccc(Cl)c1C(=O)N[C@@H](CCCNC(=N)CF)c1ncc(-c2cc(F)cc(F)c2)o1` [EX-25, (S)-2-Chloro-N-(1-(5-(3,5-difluorophenyl)oxazol-2-yl)-4-(2-fluoroacetimidamido)butyl)-6-methoxybenzamide], the IC50 is reported as 0.2 to 0.5 µM.
`COc1cccc(OC)c1C(=O)N[C@@H](CCCNC(=N)CF)c1nc(-c2ccc(Cl)cc2)no1` [EX-40] was tested, and the IC50 was greater than 0.5 µM.
With `COc1cccc(Cl)c1C(=O)N[C@@H](CCCNC(=N)CF)c1ncc(-c2ccc(F)cc2)o1` [EX-24, (S)-2-Chloro-N-(4-(2-fluoroacetimidamido)-1-(5-(4-fluorophenyl)oxazol-2-yl)butyl)-6-methoxybenzamide] the IC50 was less than 0.2 µM.
Work on `CN(C)c1ccc2cc(C(=O)N[C@@H](CCCNC(=N)CF)c3ncc(-c4ccc(Cl)cc4)o3)ccc2c1` [EX-7, (S)—N-(1-(5-(4-chlorophenyl)oxazol-2-yl)-4-(2-fluoroacetimidamido)butyl)-6-(dimethylamino)-2-naphthamide] yielded an IC50 greater than 0.5 µM.
Compound `CN(C)c1cccc(Cl)c1C(=O)N[C@@H](CCCNC(=N)CF)c1ncc(-c2ccc(Cl)cc2)o1` [EX-23, (S)-2-Chloro-N-(1-(5-(4-chlorophenyl)oxazol-2-yl)-4-(2-fluoroacetimidamido)butyl)-6-(dimethylamino)benzamide] has an IC50 of 0.2 to 0.5 µM.
In the case of `COc1cc2c(OC)cccc2cc1C(=O)N[C@@H](CCCNC(=N)CF)c1ncc(C)o1` [EX-12, (S)-N-(4-(2-fluoroacetimidamido)-1-(5-methyloxazol-2-yl)butyl)-3,5-dimethoxy-2-naphthamide], the IC50 is reported as greater than 0.5 µM.
Compound `COc1cccc(F)c1C(=O)N[C@@H](CCCNC(=N)CF)c1ncc(-c2cccc(C)c2)o1` [EX-31, (S)-2-Fluoro-N-(4-(2-fluoroacetimidamido)-1-(5-(m-tolyl)oxazol-2-yl)butyl)-6-methoxybenzamide] has an IC50 of 0.2 to 0.5 µM.
Work on `COc1cccc(Cl)c1C(=O)N[C@@H](CCCNC(=N)CF)c1ncc(-c2ccccc2Cl)o1` [EX-26, (S)-2-Chloro-N-(1-(5-(2-chlorophenyl)oxazol-2-yl)-4-(2-fluoroacetimidamido)butyl)-6-methoxybenzamide] yielded an IC50 of 0.2 to 0.5 µM.
For `COc1ccc(-c2cccc(C(=O)N[C@@H](CCCNC(=N)CF)c3ncc(-c4ccccc4)o3)c2)cc1` [EX-6, (S)—N-(4-(2-fluoroacetimidamido)-1-(5-phenyloxazol-2-yl)butyl)-4′-methoxy-[1,1′-biphenyl]-3-carboxamide], the IC50 was 0.2 to 0.5 µM.
Compound `COc1cc2ccccc2cc1C(=O)N[C@@H](CCCNC(=N)CF)c1ncc(-c2ccccc2)o1` [EX-36, (S)—N-(4-(2-fluoroacetimidamido)-1-(5-phenyloxazol-2-yl)butyl)-3-methoxy-2-naphthamide] has an IC50 of less than 0.2 µM.
With `COc1ccc(-c2cnc([C@H](CCCNC(=N)CF)NC(=O)c3c(OC)cccc3OC)o2)cc1` [EX-20, (S)-N-(4-(2-Fluoroacetimidamido)-1-(5-(4-methoxyphenyl)oxazol-2-yl)butyl)-2,6-dimethoxybenzamide] the IC50 was 0.2 to 0.5 µM.
`COc1cc2c(OC)cccc2cc1C(=O)N[C@@H](CCCNC(=N)CF)c1ncc(-c2ccccc2)o1` [EX-10] gave an IC50 of less than 0.2 µM.
`CN(C)c1ccc2cc(C(=O)N[C@@H](CCCNC(=N)CF)c3ncc(-c4cccc(F)c4)o3)ccc2c1` [EX-8, (S)-6-(Dimethylamino)-N-(4-(2-fluoroacetimidamido)-1-(5-(3-fluorophenyl)oxazol-2-yl)butyl)-2-naphthamide] gave an IC50 greater than 0.5 µM.
`CN(C)c1ccc2cc(C(=O)N[C@@H](CCCNC(=N)CCl)c3ncc(-c4ccccc4)o3)ccc2c1` [EX-3, N-[(1S)-4-(2-chloroethanimidamido)-1-(5-phenyl-1,3-oxazol-2-yl)butyl]-6-(dimethylamino)naphthalene-2-carboxamide] gave an IC50 of 0.2 to 0.5 µM.
